According to patent publication US7026281B1, “Antagonistic analogs of GH-RH inhibiting IGF-I and -II” (The Administrators of the Tulane Educational Fund, priority 1998, dated 2006):
Square brackets hold non-standard residues; d marks the D form. Peptide text beside a SMILES is read from it. * marks the point of attachment. Phe(4-Cl) = N[C@@H](Cc1ccc(Cl)cc1)C(=O)O; hArg = N=C(N)NCCCC[C@H](N)C(=O)O; Nle = CCCC[C@H](N)C(=O)O; Abu = CC[C@H](N)C(=O)O; PhAc = O=C(Cc1ccccc1)*

What was measured:
[1] = target: T1, rat pituitary GH-RH receptors (Rattus norvegicus, UniProt Q02644); experiment: GH-RH radioreceptor binding assay, rat anterior pituitary membrane homogenates; details: for Ki: competition with [His1,125I-Tyr10,Nle27]hGH-RH(1–32)NH2; for R.A. (relative affinity compared to Standard antagonist): ratio of Ki values
T1 construct: from tissue; host or cells: anterior pituitary of male Sprague-Dawley rats, crude membrane homogenates
T1 sequence (Q02644 23-464): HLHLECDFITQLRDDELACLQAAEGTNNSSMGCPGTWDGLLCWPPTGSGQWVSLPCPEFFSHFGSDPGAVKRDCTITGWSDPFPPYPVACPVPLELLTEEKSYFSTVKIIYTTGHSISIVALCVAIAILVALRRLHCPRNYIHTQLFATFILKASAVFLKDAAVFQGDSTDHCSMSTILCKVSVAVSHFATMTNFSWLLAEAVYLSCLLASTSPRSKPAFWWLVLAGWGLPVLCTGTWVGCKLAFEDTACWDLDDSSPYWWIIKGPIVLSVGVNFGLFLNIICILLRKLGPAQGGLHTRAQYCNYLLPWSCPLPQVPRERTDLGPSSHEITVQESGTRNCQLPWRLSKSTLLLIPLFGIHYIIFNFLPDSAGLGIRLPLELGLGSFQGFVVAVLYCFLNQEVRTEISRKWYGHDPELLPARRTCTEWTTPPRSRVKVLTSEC
Outline: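 Antagonists competed with [His^1,^125I-Tyr^10,Nle^27]hGH-RH(1–32)NH2 for binding to crude anterior pituitary membranes from male Sprague-Dawley rats, with γ-counting of the pellet. Ki came from Munson–Rodbard analysis. Relative affinity is the Ki of the test antagonist divided by the Ki of standard [Ac-Tyr^1,D-Arg^2]hGH-RH(1–29)NH2.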

[2] = tested on: hGH-RH(1–29)NH2 induced GH release; experiment: Inhibition of GH release in superfused rat pituitary system; type: cell-based; details: for Inhibition of GH release (%) 30 min / Inhibition of GH release (%) 60 min / Inhibition of GH release (%) 90 min / Inhibition of GH release (%) 120 min / Inhibition of GH release (%) 0 min: antagonist 30 nM; for Inhibition of GH release (%) 30 min: 1 nM hGH-RH(1–29)NH2 30 min later; for Inhibition of GH release (%) 60 min: 1 nM hGH-RH(1–29)NH2 60 min later; for Inhibition of GH release (%) 90 min: 1 nM hGH-RH(1–29)NH2 90 min later; for Inhibition of GH release (%) 120 min: 1 nM hGH-RH(1–29)NH2 120 min later; for Inhibition of GH release (%) 0 min: 1 nM hGH-RH(1–29)NH2 at 0 min
Outline: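 Superfused rat pituitary cells preincubated 9 min with peptide, then challenged for 3 min with 1 nM hGH-RH(1–29)NH2 at 0, 30, 60, 90 and 120 min. Rat GH measured by double-antibody RIA; net integral GH responses expressed as percent of the original 1 nM GH-RH-induced response.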

[3] = tested on: GH release stimulated by hGH-RH(1–29)NH2; experiment: In vivo inhibition of serum GH response in rats; design: species or system rat; details: for Inhibition of the GH release stimulated by hGH-RH(1–29)NH2 (in words): 80 μg/kg i.v., rats
Outline: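 Male Sprague-Dawley rats (200–250 g) under Nembutal received antagonist at 80 μg/kg i.v., then GH-RH(1–29)NH2 at 3 μg/kg after 5, 15, 30 or 60 min; controls received vehicle (5.5% mannitol). GH was measured by RIA before antagonist and 5 min after GH-RH, and inhibition was calculated as […].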

[4] = antagonist 80 μg/kg i.v. 5 min before GH-RH
[5] = antagonist 80 μg/kg i.v. 15 min before GH-RH
[6] = antagonist 80 μg/kg i.v. 15 min before GH-RH 3 μg/kg
[7] = antagonist 80 μg/kg i.v. 30 min before GH-RH
[8] = antagonist 80 μg/kg i.v. 30 min before GH-RH 3 μg/kg
[9] = antagonist 80 μg/kg i.v. 60 min before GH-RH
[10] = antagonist 80 μg/kg i.v. 60 min before GH-RH 3 μg/kg
[11] = rGH=GHblood1/GHblood0, antagonist 80 μg/kg i.v. 5 min before GH-RH 3 μg/kg

`CCCC[C@H](NC(=O)[C@@H](NC(=O)[C@H](CC(=O)O)NC(=O)[C@H](CCC(N)=O)NC(=O)[C@H](CC(C)C)NC(=O)[C@H](CC(C)C)NC(=O)[C@H](CCCCN)NC(=O)[C@H](CCCNC(=N)N)NC(=O)[C@H](C)NC(=O)[C@H](CO)NC(=O)[C@H](CC(C)C)NC(=O)[C@H](CCC(N)=O)NC(=O)[C@H](CC)NC(=O)[C@H](CC(C)C)NC(=O)[C@@H](NC(=O)[C@H](CCCCN)NC(=O)[C@H](CCCNC(=N)N)NC(=O)[C@H](Cc1ccc(O)cc1)NC(=O)[C@H](CCCNC(=N)N)NC(=O)[C@H](CC(N)=O)NC(=O)[C@@H](NC(=O)[C@H](Cc1ccc(Cl)cc1)NC(=O)[C@@H](NC(=O)[C@H](C)NC(=O)[C@H](CC(=O)O)NC(=O)[C@@H](CCCNC(=N)N)NC(=O)[C@H](Cc1ccc(O)cc1)NC(=O)Cc1ccccc1)[C@@H](C)CC)[C@@H](C)O)C(C)C)[C@@H](C)CC)C(=O)N[C@H](CCCNC(=N)N)C(=O)N[C@@H](CCCCNC(=N)N)C(N)=O` [Peptide 1, [PhAc^0, D-Arg^2, Phe(pCl)^6, Arg^9, Abu^15, Nle^27, D-Arg^28, Har^29]hGH-RH(1–29)NH2] (PhAc-Y[dR]DAI[Phe(4-Cl)]TNRYRKVL[Abu]QLSARKLLQDI[Nle][dR][hArg]-NH2) was tested, and the Ki [1] was 0.044 nM, the “R.A. (relative affinity compared to Standard antagonist)” value [1] was 67 and the “Inhibition of GH release (%) 30 min” value [2] was 100%. For the same compound, the “Inhibition of GH release (%) 60 min” value [2] was 100%, the “Inhibition of GH release (%) 90 min” value [2] was 100% and the “Inhibition of GH release (%) 120 min” value [2] was 94%. For the same compound, the “Inhibition of GH release (%) 0 min” value [2] was 100%, the “Duration of complete inhibition of the GH-RH induced GH release” value ([2]; standard test conditions) was 90 min and the “Inhibition of the GH release stimulated by hGH-RH(1–29)NH2 (in words)” value [3] was “strong and long-lasting inhibition”. For the same compound, the “Relative inhibition % of GH response” value [3, 4] was 95%, the “Relative inhibition % of GH response” value [3, 5] was 68% and the “GH response mean ± S.E.M.” value [3, 6] was 1.87 ± 0.13. The “Relative inhibition % of GH response” value [3, 7] was 64%, the “GH response mean ± S.E.M.” value [3, 8] was 1.97 ± 0.16 and the “Relative inhibition % of GH response” value [3, 9] was −8%. For the same compound, the “GH response mean ± S.E.M.” value [3, 10] was 3.89 ± 0.65 and the “GH response mean ± S.E.M.” value [3, 11] was 1.13 ± 0.13.
`CCCC[C@H](NC(=O)[C@@H](NC(=O)[C@H](CC(=O)O)NC(=O)[C@H](CCC(N)=O)NC(=O)[C@H](CC(C)C)NC(=O)[C@H](CC(C)C)NC(=O)[C@H](CCCCN)NC(=O)[C@H](CCCNC(=N)N)NC(=O)[C@H](C)NC(=O)[C@H](CO)NC(=O)[C@H](CC(C)C)NC(=O)[C@H](CCC(N)=O)NC(=O)[C@H](CC)NC(=O)[C@H](CC(C)C)NC(=O)[C@@H](NC(=O)[C@H](CCCCN)NC(=O)[C@H](CCCNC(=N)N)NC(=O)[C@H](Cc1ccc(OC)cc1)NC(=O)[C@H](CCCCNC(=N)N)NC(=O)[C@H](CC(N)=O)NC(=O)[C@@H](NC(=O)[C@H](Cc1ccc(Cl)cc1)NC(=O)[C@@H](NC(=O)[C@H](C)NC(=O)[C@H](CC(=O)O)NC(=O)[C@@H](CCCNC(=N)N)NC(=O)[C@H](Cc1ccc(O)cc1)NC(=O)Cc1ccccc1)[C@@H](C)CC)[C@@H](C)O)C(C)C)[C@@H](C)CC)C(=O)N[C@H](CCCNC(=N)N)C(=O)N[C@@H](CCCCNC(=N)N)C(N)=O` [Peptide 3, [PhAc^0, D-Arg^2, Phe(pCl)^6, Har^9, Tyr(Me)^10, Abu^15, Nle^27, D-Arg^28, Har^29]hGH-RH(1–29)NH2] (PhAc-Y[dR]DAI[Phe(4-Cl)]TN[hArg]Y(Me)RKVL[Abu]QLSARKLLQDI[Nle][dR][hArg]-NH2) was tested, and the Ki [1] was 0.068 nM, the “R.A. (relative affinity compared to Standard antagonist)” value [1] was 43 and the “Inhibition of GH release (%) 30 min” value [2] was 98%. For the same compound, the “Inhibition of GH release (%) 60 min” value [2] was 91%, the “Inhibition of GH release (%) 90 min” value [2] was 92% and the “Inhibition of GH release (%) 120 min” value [2] was 87%. For the same compound, the “Inhibition of GH release (%) 0 min” value [2] was 85%, the “Inhibition of the GH release stimulated by hGH-RH(1–29)NH2 (in words)” value [3] was “strong and long-lasting inhibition” and the “Relative inhibition % of GH response” value [3, 4] was 68%. The “Relative inhibition % of GH response” value [3, 5] was 61%, the “GH response mean ± S.E.M.” value [3, 6] was 3.63 ± 0.80 and the “Relative inhibition % of GH response” value [3, 7] was 41%. For the same compound, the “GH response mean ± S.E.M.” value [3, 8] was 4.89 ± 0.95, the “Relative inhibition % of GH response” value [3, 9] was 34% and the “GH response mean ± S.E.M.” value [3, 10] was 5.36 ± 0.63. The “GH response mean ± S.E.M.” value [3, 11] was 3.01 ± 0.41.
